Source: patent publication US5434132A, “Neuropeptide antagonists” (Imperial Cancer Research Technology, Ltd., priority 1988, dated 1995)
Read-outs that look alike come from different tables or passages of the source. Non-standard residues stand in square brackets, D forms with d. Residues, ends and D or L forms follow the SMILES beside them. No end group written: not given here. *: point of attachment. X1 = CC(C)C[C@@H](CN[C@@H](CC(C)C)C(N)=O)N*; pGlu = O=C1CC[C@@H](C(=O)O)N1

Assays:
[1] = system: small cell lung cancer (SCLC) cell lines; experiment: Growth in vitro of small cell lung cancer (SCLC) cell lines
[2] = system: Swiss 3T3 cells
[3] = system: bombesin/GRP, bradykinin and vasopressin receptors; experiment: Mitogenic responses elicited through bombesin/GRP, bradykinin and vasopressin receptors; assay type: cell-based, murine
[4] = system: Swiss 3T3 cells; experiment: Mitogenesis stimulated by VIP in Swiss 3T3 cells; assay type: cell-based, murine
[5] = system: Swiss 3T3 cells; remark: listed apart in the source
[6] = system: Swiss 3T3 cells; experiment: Vasopressin-induced DNA synthesis in Swiss 3T3 cells; assay type: cell-based, murine
[7] = system: Swiss 3T3 cells; details: earlier patent application and references 10, 11; cited from earlier work
[8] = system: Swiss 3T3 cells; assay type: cell-based, murine
[9] = target: T1, vasopressin receptor (Mus musculus, UniProt Q62463); details: references 4,12,13; cited from earlier work
T1 construct: endogenous in cells; host or cells: Swiss 3T3 cells

[10] = system: Swiss 3T3 cells; details: references 4,12,13; cited from earlier work
[11] = target: T2, Mr 75,000-85,000 glycoprotein component of the receptor (Mus musculus, UniProt P21729); experiment: Cross-linking of [125I]GRP to the Mr 75,000-85,000 glycoprotein in intact Swiss 3T3 cells; assay type: binding, murine; details: 1 nM [125I]GRP, 24° C.
T2 construct: endogenous in cells; host or cells: Swiss 3T3 cells (intact, confluent and quiescent)
Description: Methods: Swiss 3T3 cells were maintained in culture and assays of DNA synthesis performed as previously described 2,4,6 In all the figures, values shown represent the mean of at least 2 determinations. […] After 10 mins they were washed twice with binding medium, then incubated at 24° C. in 1 ml containing […] ethylene glycol bis(succinimidylsuccinate) at pH 7.4. After 10 mins they were washed twice with cold binding medium and solubilised in 100 μl sample buffer^8,then immediately boiled for 5 mins, and electrophoresed on a 10% polyacrylamide gel.

[12] = system: Swiss 3T3 cells; experiment: Ca2+ mobilisation elicited by GRP in Swiss 3T3 cells; assay type: cell-based, murine; details: 5 secs
[13] = system: guinea pig pancreatic acini; details: read-out: 50% inhibition (IC50) of bombesin-stimulated amylase release; cited from earlier work
[14] = target: T3, bombesin/GRP receptor (Mus musculus, UniProt P21729); experiment: [125I]GRP binding to intact Swiss 3T3 cells; parameters: species or system murine; details: 37° C.
T3 construct: Membrane protein (150 μg) prepared from Swiss 3T3 cells as described above; endogenous in cells; host or cells: Swiss 3T3 cells; membrane-enriched fraction prepared with 5 mM Mg2+

[15] = system: Swiss 3T3 cells; experiment: EGF receptor transmodulation elicited by GRP in Swiss 3T3 cells; assay type: cell-based, murine; details: 1 min
[16] = system: Swiss 3T3 cells; experiment: Cytosolic Ca2+ concentration in Fura-2 loaded Swiss 3T3 cells; assay type: cell-based, murine; details: Fura-2 loaded cells
[17] = target: T1, vasopressin receptor; experiment: [3H]vasopressin binding to Swiss 3T3 cells; parameters: species or system murine
[18] = target: T4, Mr 75,000-85,000 protein (Mus musculus, UniProt P21729); experiment: Chemical cross-linking (EGS) of 125I-GRP to the Mr 75,000-85,000 protein in Swiss 3T3 membranes; assay type: binding, murine; details: 10 min, read-out: 125I-GRP affinity labelling of the Mr 75,000-85,000 protein
T4 construct: Membrane protein (150 μg) prepared from Swiss 3T3 cells as described above; endogenous in cells; host or cells: Swiss 3T3 cells; membrane-enriched fraction prepared with 5 mM Mg2+
Description: BSA was omitted from all solutions used in the cross-linking studies. At the end of the incubation the membranes were centrifuged at 1000 rpm for 1 minute in a MSE microfuge at room n temperature. The pellets were then resuspended in cross-linking medium containing 4 mM of the cross-linking reagent (EGS) and incubated at 37° C. or 15° C. for 5 minutes or 15 minutes respectively. The reaction was terminated by centrifugation for 1 minute followed by one wash with cross-linking medium and centrifugation. Samples were solubilised in 0.20 ml of 2× sample buffer, (0.2 M Tris-HCl pH 6.8, 10% (w/v) glycerol, 6% sodium dodecyl sulphate (SDS) (w/v), 4% β-mercaptoethanol (v/v), and 2 mM EDTA), immediately heated to 100° C. for 10 minutes and analysed by one dimensional electrophoresis.
SDS-Polyacrylaaide Gel glectrophoresis: Slab gel electrophoresis was performed using 8% acrylamide in the separating gel and 4% in the stacking gel and 0.1% SDS (37). After electrophoresis gels were stained, desrained and dried down onto paper for autoradiography with Fuji x-ray film. Dried gels were exposed for 2-4 days at -70° C. Autoradiograms were scanned using an LKB ultrascan XL densitometer; and the incorporation of radioactivity into the Mr 75,000-85,000 band was quantified using the Ultroscan XL internal digital integrator.
Following incubation at 37° C. for 10 minutes the membranes were pelleted by centrifugation and chemical cross-linking carried out as described in "Experimental Procedures" using 4 mM EGS. The samples were analyzed by SDS-PAGE and scanning densitometry of the autoradiograms as described in "Experimental Procedures".

[19] = target: T3, bombesin/GRP receptor; experiment: 125I-GRP binding to membrane preparations of Swiss 3T3 cells; parameters: species or system murine; details: addition at 1μM; 0.5 nM 125I-GRP, 37° C., 10 minutes; None 305 ± 9; mean±SEM, n=3
Description: Membrane preparation: Cultures in roller bottles were washed twice with 150 ml phosphate buffered saline (PBS) (0.14M NaCl, 5 mM KCl, 0.01M Na2 HPO4, 1.8 mM KH2 PO4; pH 7.2) at room temperature. The cells were then harvested at 4° C. by scraping into ice cold PBS containing 5 mM MgCl2, 1 mM [ethylenebis(oxyethylenenitrilo)]tetraacetic acid (EGTA), 1 mg/ml bacitracin, 10 ug/ml aprotonin, 1 mg/ml soybean trypsin inhibitor and 50 μM phenylmethylsulphonyl fluoride. All subsequent steps were carried out at 4° C. The cells were pelleted by centrifugation at 750 x g for 10 minutes and resuspended 5×10^6 /ml in solution A containing 50 mM 4-(2-Hydroxyethyl)-1-piperazineethanesulfonic acid (Hepes), 5 mM MgCl2, 1 mM EGTA, 1 mg/ml bacitracin, 10 μg/ml aprotonin, 1 mg/ml soybean trypsin inhibitor and 50 μM phenylmethylsulfonyl fluoride, adjusted to pH 7.4 with NaOH at 4° C. Cells were then disrupted using a Dounce homogeniser (A pestle) 75 strokes. The homogenate was centrifuged at 500 x g for 10 minutes to remove nuclear material and intact cells and the supernatant was centrifuged again at 30000 x g for 30 minutes. The resulting pellet, representing a membrane-enriched preparation was resuspended at a protein concentration of 5 to 10 mg/ml in solution A and stored in liquid nitrogen. For experiments, membranes were thawed and diluted to a concentration of 1 mg/ml with solution A.
Receptor binding assay: Binding assays were carried out in a total volume of 100 ul in binding medium containing 50 mM Hepes, 5 mM MgCl2, 1 mg/ml bacitracin and 1% bovine serum albumin (BSA), adjusted to pH 7.4 with NaOH, unless otherwise indicated. […] Non-specific binding was subtracted from the total binding to obtain specific binding. The membranes were incubated for either 10 minutes at 37° C. or 30 minutes: at 15° C. as indicated.
The binding reactions were terminated at the specified times by rapid filtration on GF/B glass fibre filters (Whatmann, 1.0 μm pore size). Each filter was washed five times with 5 ml of PBS containing 1% BSA at 4° C. (15 s total time) using a Millipore filtration apparatus. Before the addition of membranes the filters were soaked for 24 hours in 5% polyethylenimine at 4° C. and washed with 5 ml of PBS containing 1% BSA immediately prior to use. […] Radioactivity was determined with a Beckmann γ-counter.
When 1n[(Beq - Bt)/(BoLo - Beq Bt)]is plotted as a function of time k1 can be determined from the slope by the following relation k1 =slope x [Beg/(Beg^2 - BoLo)](36) where Bo and Lo are the initial concentrations of receptor and ligand respectively. Bt is the concentration of receptor-ligand complex at time t and Beg is its concentration at equilibrium. Equation (1) takes into account the decrease in free ligand concentration that occurs during the binding reaction.
The first order rate constant of dissociation was determined from the slope of the line obtained by plotting ln(Bt/Beg) as a function of time.
The reactions were terminated and specific binding determined as described in "Experimental Procedures".

[20] = system: Swiss 3T3 cells; experiment: Stimulation of DNA synthesis in Swiss 3T3 cells; assay type: cell-based, murine; details: in the presence of insulin

T3 sequence (P21729 whole entry): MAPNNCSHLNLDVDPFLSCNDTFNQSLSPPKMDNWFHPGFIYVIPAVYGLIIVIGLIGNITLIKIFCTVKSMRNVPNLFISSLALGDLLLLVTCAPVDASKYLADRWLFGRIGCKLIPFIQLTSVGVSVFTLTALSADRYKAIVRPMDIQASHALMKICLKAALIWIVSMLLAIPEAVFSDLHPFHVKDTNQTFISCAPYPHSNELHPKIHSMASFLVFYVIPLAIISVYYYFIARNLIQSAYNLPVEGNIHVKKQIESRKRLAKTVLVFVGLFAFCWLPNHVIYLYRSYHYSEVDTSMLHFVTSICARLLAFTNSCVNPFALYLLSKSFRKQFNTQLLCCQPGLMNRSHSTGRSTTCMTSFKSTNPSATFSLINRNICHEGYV
T1 sequence (Q62463 whole entry): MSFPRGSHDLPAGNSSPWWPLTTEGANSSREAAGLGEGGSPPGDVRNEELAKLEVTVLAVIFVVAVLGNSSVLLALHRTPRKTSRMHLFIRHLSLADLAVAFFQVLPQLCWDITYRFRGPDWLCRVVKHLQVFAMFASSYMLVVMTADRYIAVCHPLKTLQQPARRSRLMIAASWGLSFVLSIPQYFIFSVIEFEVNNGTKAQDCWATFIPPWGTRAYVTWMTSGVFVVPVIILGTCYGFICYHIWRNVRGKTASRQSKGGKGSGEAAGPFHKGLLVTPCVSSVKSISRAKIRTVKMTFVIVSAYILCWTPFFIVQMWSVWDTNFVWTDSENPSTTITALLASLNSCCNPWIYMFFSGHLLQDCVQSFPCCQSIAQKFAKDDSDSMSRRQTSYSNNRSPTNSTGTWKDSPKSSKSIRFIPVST
T2 sequence (P21729 whole entry): as the sequence (P21729 whole entry) above
T4 sequence (P21729 whole entry): as above

For CC(C)C[C@H](NC(=O)[C@H](CC(C)C)NC(=O)[C@@H](Cc1c[nH]c2ccccc12)NC(=O)[C@H](Cc1ccccc1)NC(=O)[C@@H](Cc1c[nH]c2ccccc12)NC(=O)[C@H](CCC(N)=O)NC(=O)[C@@H](Cc1ccccc1)NC(=O)[C@@H]1CCCN1C(=O)[C@H](CCCCN)NC(=O)[C@@H]1CCCN1C(=O)[C@H](N)CCCNC(=N)N)C(N)=O [antagonist D, D-Arg-Pro-Lys-Pro-D-Phe-Gln-D-Trp-Phe-D-Trp-Leu-Leu-NH2] (H-[dR]PKP[dF]Q[dW]F[dW]LL-NH2), the “potency relative to Antagonist A in inhibiting growth of SCLC” value [1] was 5-10 fold, the “effect against DNA synthesis induced by various bombesin-like peptides” value ([2]; 20 μM antagonist D or 1 μm L.PSI.LB, GRP 3.6 nM, bombesin 1.2 nM, litorin 1.8 nM) was “effective” and the “potency relative to antagonist A against each mitogen” value [3] was 5-10 fold. For the same compound, the “inhibition of mitogenesis stimulated by VIP” value ([4]; VIP 3.0 nM, 20 μM antagonist D or 1 μm L.PSI.LB) was “Neither antagonist D nor [Leu^13 -.PSI.(CH2 NH)Leu^14 ]bombesin inhibited”, the IC50 [5] was 8.3 µM and the “inhibition of vasopressin-induced DNA synthesis” value ([6]; 1 uM L.PSI.LB or antagonist D) was “potent inhibitor”. For the same compound, the “potency as bombesin antagonist relative to antagonist A” value [7] was 5-10 fold, the “inhibition of mitogenesis stimulated by EGF, PDGF, phorbol dibutyrate, cholera toxin and 8-bromo-cAMP” value ([8]; 20 μM antagonist D or 1 μm L.PSI.LB) was “Neither of them inhibited” and the “inhibition of [3H]vasopressin binding” value [9] was “inhibit”. The “inhibition of vasopressin-stimulated DNA synthesis” value [10] was “inhibit”.

In the case of CC(C)C[C@@H](CN[C@@H](CC(C)C)C(N)=O)NC(=O)[C@H](Cc1c[nH]cn1)NC(=O)CNC(=O)[C@@H](NC(=O)[C@H](C)NC(=O)[C@H](Cc1c[nH]c2ccccc12)NC(=O)[C@H](CCC(N)=O)NC(=O)[C@H](CC(N)=O)NC(=O)CNC(=O)[C@H](CC(C)C)NC(=O)[C@H](CCCNC(=N)N)NC(=O)[C@H](CCC(N)=O)NC(=O)[C@@H]1CCC(=O)N1)C(C)C [[Leu^13 -.PSI.(CH2 NH)Leu^14]bombesin] ([pGlu]QRLGNQWAVGH-X1; C-terminus assumed), the “block of cross-linking of [125I]GRP to the Mr 75,000-85,000 glycoprotein” value [11] is reported as “blocked”, the “effect against DNA synthesis induced by various bombesin-like peptides” value [2] is reported as “effective” and the “inhibition of GRP-induced DNA synthesis” value [2] is reported as “strongly inhibited”. For the same compound, the “inhibition of mitogenesis stimulated by VIP” value [4] was “Neither antagonist D nor [Leu^13 -.PSI.(CH2 NH)Leu^14 ]bombesin inhibited”, the “block of Ca2+ mobilisation elicited by GRP” value [12] was “blocked” and the “effect on bradykinin-stimulated DNA synthesis” value ([5]; 1 μM L.PSI.LB) was “no effect”. The “inhibition of vasopressin-induced DNA synthesis” value [6] was “no effect”, the IC50 [13] was 0.035 µM and the “inhibition of mitogenesis stimulated by EGF, PDGF, phorbol dibutyrate, cholera toxin and 8-bromo-cAMP” value [8] was “Neither of them inhibited”. The “inhibition of specific binding of [125I]GRP to the cells” value [14] was “inhibited” and the “block of EGF receptor transmodulation elicited by GRP” value [15] was “blocked”.

For RPPGFSPFR [Bradykinin, bradykinin], the “change in cytosolic Ca2+ concentration” value [16] was “rapid and transient increase”, the “inhibition of [3H]vasopressin binding” value [17] was “did not inhibit” and the remaining activity at 1 µM [18] was 95 ± 3%. For the same compound, the “specific binding of 125I-GRP to membranes” value [19] was 302 ± 9 fmole/mg protein, the “inhibition of specific binding of [125I]GRP to the cells” value [14] was “did not inhibit” and the “stimulation of DNA synthesis” value [20] was “maximal stimulation”.
